Activity calls are given as the source filed them.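 Rule for the calls: active = response above 60% of the acetylcholine maximum at the M5 muscarinic receptor, read as positive allosteric modulation; inactive = the rest.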

Sequence of Muscarinic acetylcholine receptor M3 (Homo sapiens) (P20309 whole entry, looked up): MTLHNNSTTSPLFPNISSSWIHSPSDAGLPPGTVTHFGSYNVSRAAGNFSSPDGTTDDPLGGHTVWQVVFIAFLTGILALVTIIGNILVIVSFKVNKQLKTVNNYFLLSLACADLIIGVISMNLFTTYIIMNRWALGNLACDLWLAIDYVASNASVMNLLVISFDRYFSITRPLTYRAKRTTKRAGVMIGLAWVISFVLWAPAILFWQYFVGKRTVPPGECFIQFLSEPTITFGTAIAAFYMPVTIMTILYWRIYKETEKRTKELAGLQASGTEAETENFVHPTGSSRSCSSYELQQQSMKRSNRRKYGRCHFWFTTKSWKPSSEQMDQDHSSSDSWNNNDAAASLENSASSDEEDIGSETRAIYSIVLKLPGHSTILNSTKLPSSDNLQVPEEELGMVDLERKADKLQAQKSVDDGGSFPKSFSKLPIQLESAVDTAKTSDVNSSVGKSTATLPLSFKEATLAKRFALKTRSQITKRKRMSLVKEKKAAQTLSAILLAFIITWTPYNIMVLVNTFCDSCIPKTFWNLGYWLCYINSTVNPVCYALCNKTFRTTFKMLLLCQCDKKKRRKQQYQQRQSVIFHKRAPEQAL

One assay has as its target Muscarinic acetylcholine receptor M3 (Homo sapiens) (UniProt P20309). As to the kind of experiment: human M3 receptor positive allosteric modulators, dose response, selectivity assay for M5 PAM project, cell-based, CHO-K1 hM3, calcium flux, ACh EC20 (AID 743115). The following applies: CHO-K1 hM3, calcium flux Fluo-4, ACh EC20 potentiation.
For orientation: EC50 means the concentration needed to bring the measured effect to its halfway point. Turning to `CCN(Cc1ccccc1Cl)C(=O)C1CCN(S(=O)(=O)c2ccc3cn[nH]c3c2)CC1`, the EC50 is 2.89 µM.

On to `CCN(Cc1ccccc1Cl)C(=O)C1CCN(S(=O)(=O)c2ccc3[nH]ncc3c2)CC1`, for which the concentration for a half-maximal effect (EC50) is 0.52 µM.

Take `CCN(Cc1ccccc1C(F)(F)F)C(=O)C1CCN(S(=O)(=O)c2ccc3cn[nH]c3c2)CC1`: the EC50 was 4.67 µM.

Turning to `CCN(Cc1ccccc1C(F)(F)F)C(=O)C1CCN(S(=O)(=O)c2ccc3[nH]ncc3c2)CC1`, the EC50 is 2.08 µM.

On to `CCN(Cc1ccccc1C(F)(F)F)C(=O)C1(F)CCN(S(=O)(=O)c2ccc3[nH]ncc3c2)CC1`, for which the concentration for a half-maximal effect (EC50) is 1.77 µM.

Take `CCN(C(=O)C1CCN(S(=O)(=O)c2ccc3[nH]ncc3c2)CC1)[C@H](C)c1ccccc1`: the half-maximal effective concentration (EC50) is 2.17 µM.

Staying with this assay, now noted: CHO-K1 hM3, calcium flux Fluo-4, ACh EC20 potentiation; at 30 µM (top of the series).
Consider `CCN(Cc1ccccc1)C(=O)C1CCN(S(=O)(=O)c2ccc(OC)cc2)CC1`, for which the “% ACh max response” value is “inactive”.

Consider `CCN(C(=O)C1CCN(S(=O)(=O)c2ccc(OC)cc2)CC1)[C@H](C)c1ccccc1`, for which the “% ACh max response” value is “inactive”.

`CCN(Cc1ccccc1)C(=O)C1CCN(S(=O)(=O)c2ccc3c(c2)OCCO3)CC1`: the “% ACh max response” value was “inactive”.

The values are drawn from PubChem BioAssay AID743115 (Vanderbilt Specialized Chemistry Center, 2013).
